Holding throughout (type): in vivo
For test [1], the system named is Rhizoctonia solani. The test can be described thus: Preventive activity against sheath blight of rice plants (Experiment 2). Further details: key: 0 = disease as untreated, 5 = no disease (complete control). The conditions noted are these: rice seedlings (variety Nihonbare), sprayed at 100 ppm (30 ml/3 pots) 24 hours before inoculation, 5 days; height of the lesions. How it is done: Rice seedlings (variety Nihonbare) at the 4 - 5 leaf stage were sprayed with an aqueous suspension of the test compound at a concentration of 100 ppm (30 ml/3 pots). The seedlings were then kept for 24 hours at room temperature, after which they were inoculated with the fungus, Rhizoctonia solani, by placing 4 - 5 oat grains on which the fungus had previously been cultured around the base of each seedling. The seedlings were then kept in a moist chamber for 5 days at 25 - 27 °C. The disease controlling index was given on the basis of the height of the lesions formed on the rice seedlings.
Except in Table 12G, the compounds tested have the formula (1-1), in which Ar represents the group shown at the beginning of each part of the Table and R^1, R^2, X and Y are as defined in the Table.
(§1) The disease controlling index shown in the foregoing Tables 11 to 19 is indicated by the following codes: • 5--no disease (complete control) • 4--disease rate is less than 10% of the untreated plant • 3--disease rate is 10% - 30% of the untreated plant • 2--disease rate is 30% - 50% of the untreated plant • 1--disease rate is 50% - 70% of the untreated plant • 0--disease rate is almost same as the untreated plant.

For test [2], the system named is Rhizoctonia solani. The test can be described thus: Curative activity against sheath blight of rice plants (Experiment 3). On the set-up: key: 0 = disease as untreated, 5 = no disease (complete control). The note with it: rice seedlings (variety Nihonbare), sprayed 24 hours after inoculation at 10 ppm (30 ml/3 pots), further 5 days; height of the lesions. How it is done: Rice seedlings (variety Nihonbare) at the 4 - 5 leaf stage were inoculated with the fungus, Rhizoctonia solani, by placing 4 - 5 oat grains on which the fungus had previously been cultured around the base of each rice seedling and keeping them in a moist chamber at 25 - 27 °C. After 24 hours, the rice seedlings were sprayed with an aqueous suspension of the test compound at a concentration of 10 ppm (30 ml/3 pots) and they then continued to be kept in the moist chamber for a further 5 days. The disease controlling index was given on the basis of the height of the lesions formed on the rice seedlings.
(§2) The compounds tested have the formula (1-1), in which Ar represents the group shown at the beginning of each part of the Table and R^1, R^2, X and Y are as defined in the Table.
as §1

Test [3] has as its system Rhizoctonia solani. The test is described as follows: Preventive activity against sheath blight of rice plants by submerged application (Experiment 4). The note with it: rice seedlings (variety Nihonbare), applied to the water in the pots, 100 g per 10 ares, inoculated after 7 days, 5 days; height of the lesions.
Text: Rice seedlings (variety Nihonbare) at the 4 - 5 leaf stage grown in pots were flooded to a depth of 1 cm with water. The test compound was then applied to the water in the pots in an amount corresponding to 100 g per 10 ares. After keeping the seedlings in a greenhouse for 7 days, the water was drained from the pots and the seedlings were inoculated with the fungus, Rhizoctonia solani, by placing 4 - 5 oat grains on which the fungus had previously been cultured around the base of each seedling. The seedlings were then kept in a moist chamber for 5 days at 25 - 27 °C. The disease controlling index was given on the basis of the height of the lesions formed on the rice seedlings.
Except for Table 14F, the compounds tested have the formula (1-1), in which Ar represents the group shown at the beginning of each part of the Table and R^1, R^2, X and Y are as defined in the Table.
as §1

A further test concerns Gibberella Fujikuroi. The test is described as follows: Activity against bakanae disease of rice plants by seed soaking (Experiment 5). On the set-up: key: 0 = disease as untreated, 5 = no disease (complete control). The note with it: infected rice seeds (variety Tanginbozu) immersed 3 days in aqueous suspension (concentration not given), 3 weeks; number of diseased seedlings. How it is done:
Ten grams of rice seeds (variety Tanginbozu), infected with Gibberella Fujikuroi, were immersed in 20 ml of an aqueous suspension of the test compound for 3 days. At the end of this time, the treated seeds were densely sown in soil in pots, and the pots were placed in a greenhouse at 20 - 30 °C for 3 weeks. The disease controlling index was given on the basis of the number of diseased seedlings.
as §2, §1

A further test has as its system Sphaerotheca fuliginea. The test can be described thus: Preventive activity against powdery mildew of cucumber (Experiment 8). The note with it: cucumber seedlings sprayed at 300 ppm, inoculated after 24 hours, evaluated after 7 days in greenhouse; diseased area on third and fourth leaves. How it is done: Cucumber seedlings (variety Sagamihanpaku) at the 3 - 4 leaf stage were sprayed with an aqueous suspension of the test compound at a concentration of 300 ppm (30 ml/3 pots). The seedlings were then kept for 24 hours at room temperature, after which they were inoculated with conidida of Sphaerotheca fuliginea. After keeping the seedlings in a greenhouse for 7 days, the disease controlling index was evaluated on the basis of the diseased area on the third and fourth leaves.

For another test, the system named is Venturia inaequalis. The test is described as follows: Preventive activity against apple scab (Experiment 9). The conditions noted are these: apple seedlings sprayed at 300 ppm, inoculated after 24 hours, 3 days moist chamber then 10 days greenhouse; diseased area on third and fourth leaves. The protocol:
Apple seedlings at the 3 - 4 leaf stage were sprayed with an aqueous suspension of the test compound at a concentration of 300 ppm (30 ml/3 pots). The seedlings were then kept for 24 hours at room temperature, after which they were inoculated with the fungus, Venturia inaequalis, by spraying a spore suspension of the fungus over the seedlings. After inoculation, the seedlings were kept in a moist chamber for 3 days at 20 - 22 °C and then moved to a greenhouse at 20 - 22°C for 10 days. The disease controlling index was given on the basis of the diseased area on the third and fourth leaves.

In a further test the test system is Candida albicans. The test is described as follows: ED50 in mice infected with Candida albicans, oral treatment (Experiment 11). The conditions noted are these: treated orally. The protocol:
Groups of mice (each group contained 10 mice) were inoculated with 7 to 9 x 10^6 spores per mouse of Candida albicans. 1, 4, and 24 hours after the inoculation, each mouse was orally administered 20 mg/kg of the test compound each time. The anti-fungal activity was assessed by the survival rate 9 days after infection. The survival rate was recorded as 0% 2 days after infection in an untreated (control) group. […] Following essentially the same procedure as that described in Experiment 10, mice were infected with Candida albicans, and treated orally with various compounds of the invention, as shown in the following Table 21. Fifteen days after infection (or fourteen days in the case of the compounds of Example Nos. 5 and 10), ED50 values were determined and are reported in the following Table 21.

For another test, the system named is Pyricularia oryzae. The note with it: rice seedlings (variety Sachikaze), sprayed 24 hours after inoculation at 10 ppm (30 ml/3 pots), further 6 days; number of lesions on the upper two leaves.
The test system of a further test is Puccinia recondita. The test is described as follows: Curative activity against leaf rust of wheat (Experiment 6). The conditions noted are these: wheat seedlings (variety Norin No 61), sprayed after inoculation at 3 ppm (30 ml/3 pots), 10 days; diseased area on the first leaf. How it is done: Wheat seedlings (variety Norin No 61) at the first leaf stage were inoculated with the fungus, Puccinia recondita, by spraying them with a spore suspension of the fungus. They were then kept in a moist chamber for 24 hours at 20 - 22 °C, after which they were moved to a greenhouse at 15 - 20 °C. […] The seedlings were then continuously kept in the greenhouse for 10 days. The disease controlling index was given on the basis of diseased area on the first leaf.

The test system of test [4] is Erysiphe graminis f.sp. hordei. The test can be described thus: Curative activity against powdery mildew of barley (Experiment 7). The note with it: barley seedlings (variety Sekishinriki), sprayed one day after inoculation at 3 ppm (30 ml/3 pots), further 10 days; diseased area on the first leaf. How it is done:
Barley seedlings (variety […]) at the first leaf stage were inoculated with conidia of Erysiphe graminis f.sp. hordei and kept in a greenhouse at 15 - 20°C. After one day, the seedlings were sprayed with an aqueous suspension of the test compound at a concentration of 3 ppm (30 ml/3 pots), and they continued to be kept in the greenhouse at that temperature for a further 10 days. The disease controlling index was given on the basis of the diseased area on the first leaf.

[5] abbreviates: 360 h, fifteen days after infection.
[6] abbreviates: 336 h, fourteen days after infection (Example Nos. 5 and 10).

Take `C[C@@H](N(C)C(=O)c1ccc(C(F)(F)F)cc1)[C@](O)(Cn1cncn1)c1ccc(F)cc1F` (relative stereo) [Example 59, (2R^*, 3R*)-2-(2,4-Difluorophenyl)-3-{N-methyl-N-[4-(trifluoromethyl)benzoyl]amino}-1-(1H-1,2,4-triazol-1-yl)-2-butanol]: the disease controlling index in the test with Rhizoctonia solani [1] is 5; in the test with Rhizoctonia solani [2], 5; in the test on Rhizoctonia solani [3], 4 (disease rate is less than 10% of the untreated plant); in the test with Gibberella Fujikuroi it was 4 (disease rate is less than 10% of the untreated plant). Moreover, the “Index (disease controlling index)” value in the test on Sphaerotheca fuliginea and in the test with Venturia inaequalis was 5 each time. The ED50 – broadly, the dose that gives a 50% effect, or the effect in half of the subjects – in the test on Candida albicans (setting [5]) worked out at 0.66 mg/kg.
Turning to `C[C@@H](NC(=O)c1ccc(C(F)(F)F)cc1)[C@](O)(Cn1cncn1)c1ccc(F)cc1F` (relative stereo) [Example 17, (2R*, 3R*)-2-(2,4-0ifluorophenyl)-1-(1H-1,2,4-triazol-1-yl)-3-(4-trifluoromethylbenzoylamino)-2-butanol], the disease controlling index with Pyricularia oryzae was 5; in the test on Rhizoctonia solani [1] it was 4 (disease rate is less than 10% of the untreated plant); with Rhizoctonia solani [2], 4 (disease rate is less than 10% of the untreated plant); in the test with Gibberella Fujikuroi it was 4 (disease rate is less than 10% of the untreated plant); in the test on Puccinia recondita it was 5; in [4], 5. In addition, in the test with Sphaerotheca fuliginea, the “Index (disease controlling index)” value was 4 (disease rate is less than 10% of the untreated plant). The compound also registered an ED50 in the test with Candida albicans (setting [5]) of 0.86 mg/kg.
For `C[C@@H](NC(=O)c1ccc(Cl)cc1)[C@](O)(Cn1cncn1)c1ccc(Cl)cc1Cl` (relative stereo) [Example 5, (2R*, 3R*)-3-(4-Chlorobenzoylamino)-2-(2,4-dichlorophenyl)-1-(1H-1,2,4-triazol-1-yl)-2-butanol], the disease controlling index with Rhizoctonia solani [1] was 5; in the test on Rhizoctonia solani [3], 4 (disease rate is less than 10% of the untreated plant); in the test on Puccinia recondita it was 5; in test [4] it was 5. Moreover, the “Index (disease controlling index)” value in the test with Sphaerotheca fuliginea and in the test on Venturia inaequalis was 5 in each case. In the test on Candida albicans (setting [6]), this compound gave an ED50 of 7.07 mg/kg.
With `C[C@@H](NC(=O)c1ccc(C(F)(F)F)cc1F)[C@](O)(Cn1cncn1)c1ccc(F)cc1F` [Example 65], the disease controlling index in the test on Pyricularia oryzae was 5; in the test with Rhizoctonia solani [1], 5; in the test with Rhizoctonia solani [2], 5; with Gibberella Fujikuroi, 4 (disease rate is less than 10% of the untreated plant); with Puccinia recondita, 5; in test [4], 5. For the same compound, the “Index (disease controlling index)” value in the test on Sphaerotheca fuliginea amounted to 5. The ED50 in the test on Candida albicans (setting [5]) was less than 0.625 mg/kg.
As to `C[C@@H](SC(=O)c1ccc(C(F)(F)F)cc1)[C@](O)(Cn1cncn1)c1ccc(Cl)cc1Cl` (relative stereo) [Example 46, (2R*, 3R*)-2-(2,4-Dichlorophenyl)-1-(1H-1 ,2,4-triazol-1-yl)-3-[4-(trifluoromethyl)benzoylthio]-2-butanol], the “Index (disease controlling index)” value in the test on Sphaerotheca fuliginea and with Venturia inaequalis was 5 each time. In the test on Candida albicans (setting [5]), this compound returned a 50% effective dose (ED50) of 0.73 mg/kg.
With `C[C@@H](NC(=O)c1ccc(Cl)cc1)[C@](O)(Cn1cncn1)c1ccc(Cl)cc1Cl` [Example 10, (2R, 3R)-3-(4-Chlorobenzoylamino)-2-(2,4-dichlorophenyl)-1-(1H-1,2,4-triazol-1-yl)-2-butanol], the disease controlling index is recorded as 4 (disease rate is less than 10% of the untreated plant) in the test on Pyricularia oryzae, 5 with Rhizoctonia solani [1], 5 in the test on Rhizoctonia solani [2] and 5 in the test on Gibberella Fujikuroi. Further, the “Index (disease controlling index)” value with Sphaerotheca fuliginea and in the test on Venturia inaequalis was 5 each time. This compound gave an ED50 with Candida albicans (setting [6]) of less than 2.5 mg/kg.

Source of the values: EP0332387B1, “Triazole derivatives, their preparation and their use as fungicides” (Sankyo Company Limited, priority 1988, dated 1989).
